Results reported in BindingDB's records for doi:10.1016/j.bmcl.2017.04.009 (Vanderbilt University School of Medicine, 2017).

Target: T1, Muscarinic acetylcholine receptor M4 (Homo sapiens, UniProt P08173)
T1 sequence (P08173 whole entry): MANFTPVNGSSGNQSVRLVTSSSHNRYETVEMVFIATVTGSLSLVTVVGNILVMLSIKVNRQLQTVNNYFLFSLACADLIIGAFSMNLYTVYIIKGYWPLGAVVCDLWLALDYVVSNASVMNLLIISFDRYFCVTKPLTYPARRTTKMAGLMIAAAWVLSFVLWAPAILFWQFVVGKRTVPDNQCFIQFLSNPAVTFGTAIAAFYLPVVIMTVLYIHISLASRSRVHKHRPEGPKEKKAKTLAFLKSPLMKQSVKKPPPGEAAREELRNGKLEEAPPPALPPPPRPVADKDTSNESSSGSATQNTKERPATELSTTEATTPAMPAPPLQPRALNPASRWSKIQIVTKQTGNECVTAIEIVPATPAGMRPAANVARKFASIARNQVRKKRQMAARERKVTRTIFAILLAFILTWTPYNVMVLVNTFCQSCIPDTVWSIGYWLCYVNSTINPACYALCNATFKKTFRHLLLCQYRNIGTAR
Assay: Antagonist activity at recombinant human M4 receptor expressed in CHO cells co-expressing Gqi5 by calcium mobilization assay

With O=C(C1CCN(c2cc(Oc3ccc(Cl)cc3F)ncn2)CC1)N1CCc2ccccc2C1 as the compound, how does the IC50 read?
Its IC50 is 117 nM.
